Values joined by “and” are separate entries in the source; they are usually repeats but may differ in a detail not shown here. Equal values may be shown once. Read-outs that look alike come from different tables or passages of the source.
Experiments:
HFF = HFF proliferation (selectivity); assay type: cell-based; conditions: Homo sapiens, HFF; Table 2
SirT3 = SirT3 (Homo sapiens, UniProt Q9NTG7); experiment: biochemical
Method: (§2) The sirtuin fluorometric assay kits were obtained from Biomol. The assay was conducted according to the manufacturer's instruction. One unit of SirT1 was used per reaction. For SirT2 and SirT3, 2 units were used for the assay.

HUVEC [1] = experiment: Endothelial cell tube formation assay; assay type: cell-based, human; conditions: Matrigel; EX527 1 μM, TNP470 10 nM
Method: HUVEC were seeded on a 96-well plate (2×10^4 cells/well) coated with Matrigel. The cells were then incubated for 16˜18 h in a humidified 5% CO2 incubator at 37° C. The cells were washed carefully with PBS once and Calcein-AM solution in PBS was then added to a final concentration of 2 μM. After incubation for an additional 30 min, the cells were washed carefully with PBS and observed under a fluorescence microscope (485 nm excitation/520 nm emission). The tube formed was quantified using AngioQuant v1.33 (The MathWorks).

HUVEC [2] = experiment: Senescence associated-β-galactosidase (SA-β-gal) staining in HUVEC; assay type: cell-based, human
Method: Cells in 6-well plates were washed with PBS and fixed with 3% paraformaldehyde. After washing with PBS, the cells were incubated for 24 h at 37° C. (without CO2, protected from light) in freshly prepared SA-β-gal staining solution containing 1 mg/ml 5-bromo-4-chloro-3-indolyl β-D-galactopyranoside (X-gal), 5 mM potassium ferrocyanide, 5 mM potassium ferricyanide, 150 mM NaCl, 2 mM MgCl2 and 40 mM citric acid, titrated with NaH2PO4 to pH 6.0. SA-β-gal solution was then removed and the cells were washed with PBS. The stained cells were observed under a microscope.

[3] = system: N-terminal methionine processing of 14-3-3γ by hMetAP2; experiment: N-terminal methionine processing of 14-3-3γ in HUVEC (Western blot); assay type: cell-based, human
Method: 14-3-3γ is known as a substrate of eukaryotic MetAPs and the inhibition of either isotype of MetAPs was reported to increase the N-terminal methionyl form of the protein.
Cells were lysed by adding 1 volume of 2× Laemmli buffer and were then boiled for 5 min. The samples were separated by SDS-PAGE and transferred to nitrocellulose membrane (Bio-Rad).

hMetAP2 = target: T1, hMetAP2 (Homo sapiens, UniProt P50579); experiment: MetAP enzymatic assay, hMetAP2; assay type: biochemical; conditions: Co^2+ versus Mn^2+
T1 construct: made in house

SirT2 = SirT2 (Homo sapiens, UniProt Q8IXJ6); experiment: biochemical; conditions: SirT2 IC50, recombinant human sirtuin, fluorogenic substrate
Method: as §2

[4] = system: angiogenesis in Matrigel plugs; experiment: Matrigel plug assay in vivo; conditions: 60 mg/kg, i.p., nude mice, versus vehicle
Method: Female athymic nude mice (NCR nu/nu, 4-6 weeks old) were purchased from NCI-Frederick, Md. and treated in accordance with Johns Hopkins Animal Care and Use Committee procedures. […] Mice were pre-treated for 3 days before 0.5 mL of Matrigel (BD Biosciences) containing 150 ng/ml VEGF and 200 ng/ml bFGF was implanted subcutaneously. Drug treatment was continued daily for an additional 10 days. Mice were sacrificed, and Matrigel plugs were harvested, fixed in neutral buffered formalin, and processed for histology using MAS-trichrome staining. A cross-section of the entire Matrigel plug was photographed at ×100. And erythrocyte-filled blood vessels were counted per field in a blinded manner.

HUVEC [5] = experiment: HUVEC proliferation, [3H]-thymidine incorporation assay; assay type: cell-based, human; conditions: Homo sapiens, HUVEC
Method: HCC1954 cells were grown in RPMI1640 containing 10% FBS. HUVEC were grown using the EGM-2 bullet kit (Cambrex) as per manufacturer's instructions. The cells were maintained in a humidified incubator adjusted to 5% CO2. For drug screening, 10 mM stock solutions of Johns Hopkins Drug Library were arrayed in 96-well plates and screened at a final concentration of 10 μM. The cell growth was determined using a [^3H]-thymidine incorporation assay. Cells (typically 5,000 cells/well) were seeded in 96-well plates containing 0.2 ml of growth media and allowed to adhere for 24 h. The cells were then treated with drugs for 24 h. Cells were pulsed with 1 μCi [^3H]-thymidine (MP Biomedicals, 6.7 Ci mmol^−1) for 8 h and harvested, upon trypsin treatment, onto glass fiber filters (Wallac, Turku, Finland), from which ^3H counts were determined using a Perkin Elmer MicroBeta plate reader.

[6] = system: p53 and Rb pathways in HUVECs; experiment: Western blot of p53, p21 and Rb in HUVEC; assay type: cell-based, human
Method: (§1) Cells were lysed by adding 1 volume of 2× Laemmli buffer and were then boiled for 5 min. The samples were separated by SDS-PAGE and transferred to nitrocellulose membrane (Bio-Rad). Proteins were detected using primary antibodies for p53 (Santa Cruz), met-14-3-3γ (Novus), p21 (Santa Cruz), Rb (Santa Cruz), MetAP2 (Hu, X. et al (2006) Proc. Natl. Acad. Sci. U.S.A. 103, 18148-18153), SirT1 (Santa Cruz), acetyl-p53-K382 (Abeam), acetyl-tubulin (Sigma), histone-H3 (Santa Cruz), acetyl-H3 (Santa Cruz) and α-tubulin (TU-02, Santa Cruz) followed by the incubation with horseradish peroxidase (HRP)-conjugated anti-mouse or anti-rabbit antibodies (Santa Cruz) and enhanced chemiluminescence (ECL, Amersham).

[7] = system: acetylation of p53 (K382), α-tubulin and histone-H3; experiment: Acetylation status of sirtuin substrates in HUVEC (Western blot); assay type: cell-based, human
Method: as §1

Chain of SirT2 (Q8IXJ6 whole entry): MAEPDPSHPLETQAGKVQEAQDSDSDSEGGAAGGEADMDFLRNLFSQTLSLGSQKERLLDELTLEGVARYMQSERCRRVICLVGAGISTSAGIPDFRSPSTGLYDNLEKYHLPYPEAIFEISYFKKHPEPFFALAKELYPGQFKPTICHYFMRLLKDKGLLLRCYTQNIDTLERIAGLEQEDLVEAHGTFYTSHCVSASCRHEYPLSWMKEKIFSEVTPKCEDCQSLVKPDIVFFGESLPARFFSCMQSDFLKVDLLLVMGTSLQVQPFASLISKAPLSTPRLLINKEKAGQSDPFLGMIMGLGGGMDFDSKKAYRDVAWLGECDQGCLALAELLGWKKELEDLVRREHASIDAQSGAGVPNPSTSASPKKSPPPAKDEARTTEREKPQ
T1 sequence (P50579 whole entry): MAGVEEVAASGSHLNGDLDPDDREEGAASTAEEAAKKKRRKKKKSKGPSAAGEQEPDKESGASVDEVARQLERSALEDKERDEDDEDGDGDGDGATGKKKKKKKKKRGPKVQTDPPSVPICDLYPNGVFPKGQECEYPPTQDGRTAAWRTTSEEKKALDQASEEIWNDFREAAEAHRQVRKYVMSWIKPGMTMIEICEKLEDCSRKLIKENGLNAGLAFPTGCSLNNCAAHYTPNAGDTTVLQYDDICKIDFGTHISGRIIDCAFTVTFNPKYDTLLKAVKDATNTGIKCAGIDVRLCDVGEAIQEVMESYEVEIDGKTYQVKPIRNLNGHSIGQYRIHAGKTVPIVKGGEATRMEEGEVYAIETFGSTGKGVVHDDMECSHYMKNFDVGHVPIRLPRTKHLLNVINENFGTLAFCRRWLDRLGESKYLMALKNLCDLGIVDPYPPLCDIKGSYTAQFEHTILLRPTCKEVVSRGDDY
Chain of SirT3 (Q9NTG7 whole entry): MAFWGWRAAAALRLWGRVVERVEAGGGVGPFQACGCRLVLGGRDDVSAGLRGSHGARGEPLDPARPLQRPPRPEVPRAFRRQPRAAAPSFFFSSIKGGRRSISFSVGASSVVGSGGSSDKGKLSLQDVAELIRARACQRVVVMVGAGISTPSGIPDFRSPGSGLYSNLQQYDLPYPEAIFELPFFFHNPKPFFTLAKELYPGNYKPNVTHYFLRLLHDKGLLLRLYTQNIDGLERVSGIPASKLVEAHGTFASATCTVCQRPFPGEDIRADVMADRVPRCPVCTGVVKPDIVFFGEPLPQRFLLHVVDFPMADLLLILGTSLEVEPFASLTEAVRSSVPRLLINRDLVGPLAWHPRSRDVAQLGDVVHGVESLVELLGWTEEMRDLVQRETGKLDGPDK

For `O=[N+]([O-])c1ccc(O)c2ncccc12` [Entry 1c, nitroxoline], the IC50 (HFF) was 13.6 µM, the IC50 (SirT3) was > 50 µM and the HUVEC tube formation (HUVEC [1]) was “inhibited”. The “premature senescence in HUVEC” value (HUVEC [2]; 72 h, valproic acid 0.1 mM, TNP-470 20 nM) was “induced premature senescence”, the reversibility of senescence (HUVEC [2]; 72 h treatment, then fresh media for an additional 48 h) was “remained senescent” and the “N-terminal methioninylated 14-3-3γ level” value ([3]; 24 h) was “dose-dependently increased”. The inhibition at 5 µM ([3]; Homo sapiens, read-out: inhibition of the processing of 14-3-3γ compared with hMetAP2 siRNA) was ~80%, the “potency on MetAP-2 with Co^2+ lower than with Mn^2+” value (hMetAP2) was 25 fold and the IC50 (SirT2) was 43 µM and 35 µM. The “density of new blood vessels in Matrigel plugs” value [4] was “dramatic reduction in the density of new blood vessels”, the IC50 (HUVEC [5]; read-out: Selectivity HUVEC IC50) was 1.98 µM and the IC50 (HUVEC [5]; Table 4, read-out: HUVEC IC50) was 1.98 µM. The p53 protein level [6] was “upregulation”, the Rb hyperphosphorylation ([6]; 8% SDS-PAGE) was “inhibited its hyperphosphorylation” and the “total amount of Rb protein” value ([6]; 12% SDS-PAGE) was “increased the total amount of Rb protein”. For the same molecule, the “p21 protein level on longer incubation” value ([6]; longer incubation) was “upregulated”, the “p53 protein level on prolonged exposure” value ([6]; up to 72 h) was “sustained increase in p53 protein level” and the “expression of p21” value ([6]; within 24 h of treatment) was “no effect”. The “acetylation of p53-K382” value ([7]; HUVEC treated for 20 h) was “increased the acetylation of p53-K382”, the “acetylation status of tubulin or histone-H3” value ([7]; HUVEC, 6 h or 20 h) was “did not change the acetylation status” and the “acetylation of tubulin and histone-H3 in the presence of TSA” value ([7]; HUVEC, with TSA (200 nM), 24 h, nitroxoline 20 μM) was “significantly increased the acetylation of both tubulin and histone-H3”.

From patent US8729097B2, “Quinoline compounds as inhibitors of angiogenesis, human methionine aminopeptidase, and SIRT1, and methods of treating disorders” (The Johns Hopkins University, priority 2008, dated 2014)
